According to patent publication US11472791B2 (Incyte Corporation, priority 2019, dated 2022):

The molecules below were run against CDK2/Cyclin E1 (Homo sapiens (Human), UniProt P24941) (assay: CDK2/Cyclin E1 HTRF enzyme activity assay). Conditions: 1 mM ATP.
Type: biochemical
Protocol: Assays are conducted in white 384-well polystyrene plates in a final reaction volume of 8 μL. […] HTRF signals are read after 1 hour at room temperature on a PHERAstar FS plate reader (BMG Labtech). Data is analyzed with IDBS XLFit and GraphPad Prism 5.0 software using a three or four parameter dose response curve to determine IC50 for each compound.

IC50, < 50 nM:
CC(=O)N1CC(NCc2ccc(-n3cc(-c4nc(NC5CCN(S(C)(=O)=O)CC5)ncc4C#N)cn3)c(Cl)c2)C1 [Example 171, 4-(1-(4-(((1-Acetylazetidin-3-yl)amino)methyl)-2-chlorophenyl)-1H-pyrazol-4-yl)-2-((1-(methylsulfonyl)piperidin-4-yl)amino)pyrimidine-5-carbonitrile]
COC(=O)N1CC(NCc2ccc(-n3cc(-c4nc(NC5CCN(S(C)(=O)=O)CC5)ncc4C#N)cn3)c(Cl)c2)C1 [Example 172, Methyl 3-((3-chloro-4-(4-(5-cyano-2-((1-(methylsulfonyl)piperidin-4-yl)amino)pyrimidin-4-yl)-1H-pyrazol-1-yl)benzyl)amino)azetidine-1-carboxylate]
CS(=O)(=O)N1CCC(Nc2ncc(C#N)c(-c3cnn(-c4ccc(CN[C@H]5CC[C@@](C)(O)CC5)cc4Cl)c3)n2)CC1 [Example 173, 4-(1-(2-Chloro-4-((((1s,4s)-4-hydroxy-4-methylcyclohexyl)amino)methyl)phenyl)-1H-pyrazol-4-yl)-2-((1-(methylsulfonyl)piperidin-4-yl)amino)pyrimidine-5-carbonitrile]
CS(=O)(=O)N1CCC(Nc2ncc(C#N)c(-c3cnn(-c4ccc(CN[C@H]5CC[C@](C)(O)CC5)cc4Cl)c3)n2)CC1 [Example 174, 4-(1-(2-Chloro-4-((((1r,4r)-4-hydroxy-4-methylcyclohexyl)amino)methyl)phenyl)-1H-pyrazol-4-yl)-2-((1-(methylsulfonyl)piperidin-4-yl)amino)pyrimidine-5-carbonitrile]
CCS(=O)(=O)N1CCC(Nc2ncc(C#N)c(-c3cnn(-c4ccc(CN[C@H]5CC[C@@](C)(O)CC5)cc4Cl)c3)n2)CC1 [Example 175, 4-(1-(2-Chloro-4-((((1s,4s)-4-hydroxy-4-methylcyclohexyl)amino)methyl)phenyl)-1H-pyrazol-4-yl)-2-((1-(ethylsulfonyl)piperidin-4-yl)amino)pyrimidine-5-carbonitrile]
CCS(=O)(=O)N1CCC(Nc2ncc(C#N)c(-c3cnn(-c4ccc(CN[C@H]5CC[C@](C)(O)CC5)cc4Cl)c3)n2)CC1 [Example 176, 4-(1-(2-Chloro-4-((((1r,4r)-4-hydroxy-4-methylcyclohexyl)amino)methyl)phenyl)-1H-pyrazol-4-yl)-2-((1-(ethylsulfonyl)piperidin-4-yl)amino)pyrimidine-5-carbonitrile]
CS(=O)(=O)N1CCC(Nc2ncc(C#N)c(-c3cnn(-c4ccc(CN[C@H]5CC[C@](O)(C(F)(F)F)CC5)cc4Cl)c3)n2)CC1 [Example 177, 4-(1-(2-Chloro-4-((((1s,4s)-4-hydroxy-4-(trifluoromethyl)cyclohexyl)amino)methyl)phenyl)-1H-pyrazol-4-yl)-2-((1-(methylsulfonyl)piperidin-4-yl)amino)pyrimidine-5-carbonitrile]
CS(=O)(=O)N1CCC(Nc2ncc(C#N)c(-c3cnn(-c4ccc(CN[C@@H]5CCCC[C@H]5O)cc4Cl)c3)n2)CC1 [Example 178, 4-(1-(2-Chloro-4-((((1R,2R)-2-hydroxycyclohexyl)amino)methyl)phenyl)-1H-pyrazol-4-yl)-2-((1-(methylsulfonyl)piperidin-4-yl)amino)pyrimidine-5-carbonitrile]
CS(=O)(=O)N1CCC(Nc2ncc(C#N)c(-c3cnn(-c4ccc(CN[C@@H]5CCCC[C@@H]5O)cc4Cl)c3)n2)CC1 [Example 179, 4-(1-(2-Chloro-4-((((1R,2S)-2-hydroxycyclohexyl)amino)methyl)phenyl)-1H-pyrazol-4-yl)-2((1-(methylsulfonyl)piperidin-4-yl)amino)pyrimidine-5-carbonitrile]
CS(=O)(=O)N1CCC(Nc2ncc(C#N)c(-c3cnn(-c4ccc(CN[C@H]5CCC[C@@H](O)C5)cc4Cl)c3)n2)CC1 [Example 180, 4-(1-(2-Chloro-4-((((1S,3R)-3-hydroxycyclohexyl)amino)methyl)phenyl)-1H-pyrazol-4-yl)-2((1-(methylsulfonyl)piperidin-4-yl)amino)pyrimidine-5-carbonitrile]
CS(=O)(=O)N1CCC(Nc2ncc(C#N)c(-c3cnn(-c4ccc(CN[C@H]5CCC[C@H](O)C5)cc4Cl)c3)n2)CC1 [Example 181, 4-(1-(2-Chloro-4-((((1S,3S)-3-hydroxycyclohexyl)amino)methyl)phenyl)-1H-pyrazol-4-yl)-2((1-(methylsulfonyl)piperidin-4-yl)amino)pyrimidine-5-carbonitrile]
CS(=O)(=O)N1CCC(Nc2ncc(C#N)c(-c3cnn(-c4ccc(CN[C@H]5CC[C@H](O)CC5)cc4Cl)c3)n2)CC1 [Example 182, 4-(1-(2-Chloro-4-((((1r,4r)-4-hydroxycyclohexyl)amino)methyl)phenyl)-1H-pyrazol-4-yl)-2-((1-(methylsulfonyl)piperidin-4-yl)amino)pyrimidine-5-carbonitrile]
CS(=O)(=O)N1CCC(Nc2ncc(C#N)c(-c3cnn(-c4ccc(CNC5CCC(C#N)CC5)cc4Cl)c3)n2)CC1 (stereo not drawn) [Example 183, 4-(1-(2-Chloro-4-(((4-cyanocyclohexyl)amino)methyl)phenyl)-1H-pyrazol-4-yl)-2-((1-(methylsulfonyl)piperidin-4-yl)amino)pyrimidine-5-carbonitrile]
CN(C)C1CCCCC1NCc1ccc(-n2cc(-c3nc(NC4CCN(S(C)(=O)=O)CC4)ncc3C#N)cn2)c(Cl)c1 (stereo not drawn) [Example 184, 4-(1-(2-Chloro-4-(((2-(dimethylamino)cyclohexyl)amino)methyl)phenyl)-1H-pyrazol-4-yl)-2-((1-(methylsulfonyl)piperidin-4-yl)amino)pyrimidine-5-carbonitrile]
CS(=O)(=O)N1CCC(Nc2ncc(C#N)c(-c3cnn(-c4ccc(CN[C@H]5CC[C@@H](S(C)(=O)=O)CC5)cc4Cl)c3)n2)CC1 [Example 185, 4-(1-(2-Chloro-4-((((cis)-4-(methylsulfonyl)cyclohexyl)amino)methyl)phenyl)-1H-pyrazol-4-yl)-2-((1-(methylsulfonyl)piperidin-4-yl)amino)pyrimidine-5-carbonitrile]
CS(=O)(=O)N1CCC(Nc2ncc(C#N)c(-c3cnn(-c4ccc(CN[C@@H]5CCC[C@H]5O)cc4Cl)c3)n2)CC1 [Example 186, 4-(1-(2-Chloro-4-((((1R,2R)-2-hydroxycyclopentyl)amino)methyl)phenyl)-1H-pyrazol-4-yl)-2-((1-(methylsulfonyl)piperidin-4-yl)amino)pyrimidine-5-carbonitrile]
CS(=O)(=O)N1CCC(Nc2ncc(C#N)c(-c3cnn(-c4ccc(CN[C@H]5CCC[C@@H]5O)cc4Cl)c3)n2)CC1 [Example 187, 4-(1-(2-Chloro-4-((((1S,2S)-2-hydroxycyclopentyl)amino)methyl)phenyl)-1H-pyrazol-4-yl)-2-((1-(methylsulfonyl)piperidin-4-yl)amino)pyrimidine-5-carbonitrile]
CS(=O)(=O)N1CCC(Nc2ncc(C#N)c(-c3cnn(-c4ccc(CN[C@H]5CC[C@@H](O)C5)cc4Cl)c3)n2)CC1 [Example 188, 4-(1-(2-Chloro-4-((((1S,3R)-3-hydroxycyclopentyl)amino)methyl)phenyl)-1H-pyrazol-4-yl)-2-((1-(methylsulfonyl)piperidin-4-yl)amino)pyrimidine-5-carbonitrile]
CS(=O)(=O)N1CCC(Nc2ncc(C#N)c(-c3cnn(-c4ccc(CN[C@@H]5CC[C@@H](O)C5)cc4Cl)c3)n2)CC1 [Example 189, 4-(1-(2-Chloro-4-((((1R,3R)-3-hydroxycyclopentyl)amino)methyl)phenyl)-1H-pyrazol-4-yl)-2-((1-(methylsulfonyl)piperidin-4-yl)amino)pyrimidine-5-carbonitrile]
CS(=O)(=O)N1CCC(Nc2ncc(C#N)c(-c3cnn(-c4ccc(CN[C@H]5C[C@@](C)(O)C5)cc4Cl)c3)n2)CC1 [Example 190, 4-(1-(2-Chloro-4-((((1s,3s)-3-hydroxy-3-methylcyclobutyl)amino)methyl)phenyl)-1H-pyrazol-4-yl)-2-((1-(methylsulfonyl)piperidin-4-yl)amino)pyrimidine-5-carbonitrile]
CS(=O)(=O)N1CCC(Nc2ncc(C#N)c(-c3cnn(-c4ccc(CN[C@H]5C[C@](C)(O)C5)cc4Cl)c3)n2)CC1 [Example 191, 4-(1-(2-Chloro-4-((((1r,3r)-3-hydroxy-3-methylcyclobutyl)amino)methyl)phenyl)-1H-pyrazol-4-yl)-2-((1-(methylsulfonyl)piperidin-4-yl)amino)pyrimidine-5-carbonitrile]
CCS(=O)(=O)N1CCC(Nc2ncc(C#N)c(-c3cnn(-c4ccc(CN[C@H]5C[C@@](C)(O)C5)cc4Cl)c3)n2)CC1 [Example 192, 4-(1-(2-Chloro-4-((((1s,3s)-3-hydroxy-3-methylcyclobutyl)amino)methyl)phenyl)-1H-pyrazol-4-yl)-2-((1-(ethylsulfonyl)piperidin-4-yl)amino)pyrimidine-5-carbonitrile]
CCS(=O)(=O)N1CCC(Nc2ncc(C#N)c(-c3cnn(-c4ccc(CN[C@H]5C[C@](C)(O)C5)cc4Cl)c3)n2)CC1 [Example 193, 4-(1-(2-Chloro-4-((((1r,3r)-3-hydroxy-3-methylcyclobutyl)amino)methyl)phenyl)-1H-pyrazol-4-yl)-2-((1-(ethylsulfonyl)piperidin-4-yl)amino)pyrimidine-5-carbonitrile]
CCn1cc(CNCc2ccc(-n3cc(-c4nc(NC5CCN(S(C)(=O)=O)CC5)ncc4C#N)cn3)c(Cl)c2)cn1 [Example 194, 4-(1-(2-Chloro-4-((((1-ethyl-1H-pyrazol-4-yl)methyl)amino)methyl)phenyl)-1H-pyrazol-4-yl)-2-((1-(methylsulfonyl)piperidin-4-yl)amino)pyrimidine-5-carbonitrile]
